Test results as given in ChEMBL document CHEMBL5107969, “Alzheimer's disease: Updated multi-targets therapeutics are in clinical and in progress” (Eur J Med Chem, 2022).

How the values were obtained:
Homo sapiens = organism: Homo sapiens; experiment: Selectivity ratio of Ki for sigma1 receptor (unknown origin) to Ki for sigma2 receptor (unknown origin)
[1] = Drug concentration in […] mouse brain at 3 mg/kg, po measured after 30 mins; type: ADME, organism-based; details: read-out: Ct
[2] = target: T1, Amyloid-beta precursor protein (Homo sapiens, UniProt P05067); experiment: Inhibition of human AChE-induced amyloid beta (1 to 40) aggregation (unknown origin)
T1 sequence (P05067 whole entry): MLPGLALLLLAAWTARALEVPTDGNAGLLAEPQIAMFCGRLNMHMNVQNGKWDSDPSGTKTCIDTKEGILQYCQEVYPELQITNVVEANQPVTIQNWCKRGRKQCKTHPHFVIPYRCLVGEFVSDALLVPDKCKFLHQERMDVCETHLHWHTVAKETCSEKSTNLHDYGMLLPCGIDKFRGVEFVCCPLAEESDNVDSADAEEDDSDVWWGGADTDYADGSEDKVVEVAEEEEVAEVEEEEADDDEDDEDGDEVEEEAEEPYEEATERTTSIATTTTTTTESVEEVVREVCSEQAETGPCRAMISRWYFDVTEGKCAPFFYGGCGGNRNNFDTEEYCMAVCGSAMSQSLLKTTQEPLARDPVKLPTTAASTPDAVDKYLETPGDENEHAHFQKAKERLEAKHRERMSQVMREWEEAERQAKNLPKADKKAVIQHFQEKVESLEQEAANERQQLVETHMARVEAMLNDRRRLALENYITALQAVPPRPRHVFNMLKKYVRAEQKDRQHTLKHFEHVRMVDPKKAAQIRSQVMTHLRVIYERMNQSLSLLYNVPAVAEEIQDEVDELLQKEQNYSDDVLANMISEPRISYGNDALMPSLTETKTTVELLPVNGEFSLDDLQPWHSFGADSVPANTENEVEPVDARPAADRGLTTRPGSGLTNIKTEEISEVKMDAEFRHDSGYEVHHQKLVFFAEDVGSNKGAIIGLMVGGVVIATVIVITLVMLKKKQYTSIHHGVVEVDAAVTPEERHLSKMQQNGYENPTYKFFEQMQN

[3] = Drug uptake in CD-1 mouse brain at 10 mg/kg, po via gavage measured after 5 mins by LC-MS/MS analysis; type: ADME, organism-based; details: read-out: Ct
[4] = Drug uptake in CD-1 mouse plasma at 10 mg/kg, po via gavage measured after 5 mins by LC-MS/MS analysis; type: ADME, organism-based
HEK293 = experiment: Induction of Nrf2/ARE transcriptional activation in human HEK293 cells measured after 24 hrs by Bright-Glo luciferase assay; type: cell-based; details: filed as activator
Cholinesterase = Cholinesterase (Equus caballus, UniProt P81908); experiment: Inhibition of equine serum BChE incubated for 15 mins by Ellman's method; type: cell-free
Chain of Cholinesterase (P81908 whole entry): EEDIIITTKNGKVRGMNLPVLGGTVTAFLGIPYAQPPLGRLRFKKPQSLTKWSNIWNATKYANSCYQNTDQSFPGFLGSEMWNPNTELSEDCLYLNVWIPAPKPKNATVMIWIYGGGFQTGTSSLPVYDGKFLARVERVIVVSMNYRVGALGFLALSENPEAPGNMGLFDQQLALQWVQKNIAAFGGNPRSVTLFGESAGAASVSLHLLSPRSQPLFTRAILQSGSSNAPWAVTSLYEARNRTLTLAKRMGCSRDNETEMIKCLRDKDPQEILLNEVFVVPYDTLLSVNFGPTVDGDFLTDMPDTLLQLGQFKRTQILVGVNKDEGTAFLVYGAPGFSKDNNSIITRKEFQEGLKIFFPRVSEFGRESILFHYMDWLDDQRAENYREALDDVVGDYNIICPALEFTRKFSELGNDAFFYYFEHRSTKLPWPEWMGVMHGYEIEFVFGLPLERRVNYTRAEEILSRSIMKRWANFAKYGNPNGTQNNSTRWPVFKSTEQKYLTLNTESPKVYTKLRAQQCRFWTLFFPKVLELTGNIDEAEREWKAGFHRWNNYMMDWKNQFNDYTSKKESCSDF

[5] = target: T1, Amyloid-beta precursor protein; experiment: Inhibition of self-induced amyloid beta (1 to 42) (unknown origin) aggregation at 25 uM incubated for 24 hrs by Thioflavin T-based fluorometric assay relative to control
[6] = target: T1, Amyloid-beta precursor protein; experiment: Disaggregation of self-induced amyloid beta (1 to 42) (unknown origin) aggregation at 25 uM incubated for 24 hrs by Thioflavin T-based fluorometric assay relative to control

O=c1ccoc2ccc(OCCCN3CCCCCC3)cc12
Ratio Ki (Homo sapiens): 28

NC1=NC(c2ccc(F)cc2)NC(=O)N1 (centres undefined)
concentration at 0.5 h [1]: 620 nM

CCN(CCCCCCNC1=CC(=O)C(NCCCCCCN(CC)Cc2ccccc2OC)=CC1=O)Cc1ccccc1OC [MEMOQUIN]
IC50 [2]: 28.3 µM

CN(C)c1ccc(O)c(CNc2cccc3ccc(CO)nc23)c1
concentration at 5 min [3]: 14.3 ng/mL | concentration at 5 min [4]: 5.91 ng/mL

CCCOc1ccc2[nH]cc(CCNC(=O)CN(CCc3c[nH]c4ccc(OCc5ccccc5)cc34)C(=O)CCCC[C@@H]3CCSS3)c2c1
CD (HEK293): 28.1 µM

CCN(CCCCOc1ccc(/C=C/C(=O)N2CCc3ccccc3C2)cc1OC)Cc1ccccc1
IC50 (Cholinesterase): 0.0089 µM | inhibition [5]: 53.9% | Activity [6]: 43.8%
